Entries after “also recorded” stand apart in the source; their conditions may differ. Where two headings read alike, the source gives them in different places.
Key:
[1] = PK comparison QD, BID, TID oral dosing; assay type: in vivo; conditions: CD-1, mouse, plasma; for AUC(0-inf) / Cmax / half-life: po, 0.3 g/kg
Method: Each regimen was studied in 3 male and 3 female CD-1 mice. PK of ribitol following the final dose was compared among these three regimens. The first and the second subsets of mice receiving QD and BID of ribitol were bled at 0.5, 1, 2, 4, and 6 hours post QD dosing and the second dose of the BID dosing, respectively; the third subset of mice receiving TID of ribitol were bled at 0.5, 1, 2, 4 and 12 hours post the third dose.

[2] = 28-day repeat-dose oral toxicokinetics; assay type: in vivo, Bama minipig; conditions: for AUC(0-t): read-out: AUC0-24
Method: Toxicokinetics of ribitol was evaluated as part of the 28-day toxicology study in male and female Bama minipig. […] Animals in control group were dosed for 28 days twice daily with the vehicle only (Purified Water). On Days 1 and 28, blood samples were collected at 0 (pre first dose), 0.5, 1, 2, 4, 6 (pre-second dose), 6.5, 7, 8, 10, 12, and 24 hours from all available animals.

[3] = female, PO 0.3 g/kg/dose BID, last dose
[4] = female, PO 0.3 g/kg/dose TID, last dose
[5] = male, PO 0.3 g/kg/dose BID, last dose
[6] = male, PO 0.3 g/kg/dose TID, last dose
[7] = 1.0 g/kg/dose BID (2.0 g/kg/day, NOAEL), Day 28, Female
[8] = 1.0 g/kg/dose BID (2.0 g/kg/day, NOAEL), Day 28, Male

## OC[C@@H](O)[C@@H](O)[C@@H](O)CO [ribitol, (2R,3s,4S)-Pentane-1,2,3,4,5-pentol]
[1]; PO 0.3 g/kg QD, female
  Tmax: 0.5 h
[1]; PO 0.3 g/kg QD, male
  Tmax: 0.5 h
[1]; female, PO 0.3 g/kg QD
  AUC(0-inf): 47.1 µg·h/mL
  Cmax: 33.3 µg/mL
  half-life: 1.17 h
[1]; [3]
  AUC(0-inf): 48.3 µg·h/mL
  Cmax: 28.3 µg/mL
  half-life: 0.984 h
[1]; [4]
  AUC(0-inf): 40.6 µg·h/mL
  Cmax: 43.9 µg/mL
  half-life: 0.53 h
[1]; male, PO 0.3 g/kg QD
  AUC(0-inf): 45.2 µg·h/mL
  Cmax: 34.2 µg/mL
  half-life: 0.839 h
[1]; [5]
  AUC(0-inf): 49.6 µg·h/mL
  Cmax: 27.4 µg/mL
  half-life: 1.5 h
[1]; [6]
  AUC(0-inf): 28.2 µg·h/mL
  Cmax: 31.4 µg/mL
  half-life: 0.454 h
[2]; [7]
  AUC0-24: 1980 ± 1040 µg·h/mL
  Cmax: 281 ± 141 µg/mL
[2]; [8]
  AUC0-24: 2560 ± 526 µg·h/mL
  Cmax: 475 ± 97.7 µg/mL
[2]; after 28-day repeated oral administration, any dose level
  drug accumulation: no marked drug accumulation; also recorded: no apparent ribitol drug accumulation
[2]; both sexes, Bama, minipig, plasma, oral, post dose and post second dose, Day 1 or Day 28, range
  Tmax: 0.5 to 2 h
[2]; female, Bama, minipig, plasma, po, 0.1 g/kg, 0.1 g/kg/dose BID, Day 1, Female, mean ± SD
  AUC(0-t): 268 ± 129 µg·h/mL
[2]; female, Bama, minipig, plasma, po, 0.1 g/kg, 0.1 g/kg/dose BID, Day 1, Female, mean ± SD, read-out: Cmax
  Cmax: 39.6 ± 23.3 µg/mL
[2]; female, Bama, minipig, plasma, po, 0.1 g/kg, 0.1 g/kg/dose BID, Day 1, Female, median (range)
  Tmax: 5 h
[2]; female, Bama, minipig, plasma, po, 0.1 g/kg, 0.1 g/kg/dose BID, Day 28, Female, mean ± SD
  AUC(0-t): 257 ± 82.6 µg·h/mL
[2]; female, Bama, minipig, plasma, po, 0.1 g/kg, 0.1 g/kg/dose BID, Day 28, Female, mean ± SD, read-out: Cmax
  Cmax: 37.2 ± 17.8 µg/mL
[2]; female, Bama, minipig, plasma, po, 0.1 g/kg, 0.1 g/kg/dose BID, Day 28, Female, median (range)
  Tmax: 7 h
[2]; female, Bama, minipig, plasma, po, 0.3 g/kg, 0.3 g/kg/dose BID, Day 1, Female, mean ± SD
  AUC(0-t): 605 ± 83.4 µg·h/mL
[2]; female, Bama, minipig, plasma, po, 0.3 g/kg, 0.3 g/kg/dose BID, Day 1, Female, mean ± SD, read-out: Cmax
  Cmax: 98.4 ± 28 µg/mL
[2]; female, Bama, minipig, plasma, po, 0.3 g/kg, 0.3 g/kg/dose BID, Day 1, Female, median (range)
  Tmax: 4.3 h
[2]; female, Bama, minipig, plasma, po, 0.3 g/kg, 0.3 g/kg/dose BID, Day 28, Female, mean ± SD
  AUC(0-t): 894 ± 125 µg·h/mL
[2]; female, Bama, minipig, plasma, po, 0.3 g/kg, 0.3 g/kg/dose BID, Day 28, Female, mean ± SD, read-out: Cmax
  Cmax: 139 ± 40.9 µg/mL
[2]; female, Bama, minipig, plasma, po, 0.3 g/kg, 0.3 g/kg/dose BID, Day 28, Female, median (range)
  Tmax: 4.3 h
[2]; female, Bama, minipig, plasma, po, 1 g/kg, 1.0 g/kg/dose BID (2.0 g/kg/day, NOAEL), Day 28, Female
  AUC(0-t): 1980 µg·h/mL
[2]; female, Bama, minipig, plasma, po, 1 g/kg, 1.0 g/kg/dose BID (2.0 g/kg/day, NOAEL), Day 28, Female, read-out: Cmax
  Cmax: 281 µg/mL
[2]; female, Bama, minipig, plasma, po, 1 g/kg, 1.0 g/kg/dose BID, Day 1, Female, mean ± SD
  AUC(0-t): 1770 ± 582 µg·h/mL
[2]; female, Bama, minipig, plasma, po, 1 g/kg, 1.0 g/kg/dose BID, Day 1, Female, mean ± SD, read-out: Cmax
  Cmax: 261 ± 82.4 µg/mL
[2]; female, Bama, minipig, plasma, po, 1 g/kg, 1.0 g/kg/dose BID, Day 1, Female, median (range)
  Tmax: 6.8 h
[2]; female, Bama, minipig, plasma, po, 1 g/kg, 1.0 g/kg/dose BID, Day 28, Female, median (range)
  Tmax: 7 h
[2]; female, Bama, minipig, plasma, po, 2 g/kg/day, 1.0 g/kg/dose BID (2.0 g/kg/day, NOAEL), Day 28, Female
  AUC(0-t): 1980 µg·h/mL
[2]; female, Bama, minipig, plasma, po, 2 g/kg/day, 1.0 g/kg/dose BID (2.0 g/kg/day, NOAEL), Day 28, Female, read-out: Cmax
  Cmax: 281 µg/mL
[2]; male, Bama, minipig, plasma, po, 0.1 g/kg, 0.1 g/kg/dose BID, Day 1, Male, mean ± SD
  AUC(0-t): 210 ± 75 µg·h/mL
[2]; male, Bama, minipig, plasma, po, 0.1 g/kg, 0.1 g/kg/dose BID, Day 1, Male, mean ± SD, read-out: Cmax
  Cmax: 39.8 ± 16.8 µg/mL
[2]; male, Bama, minipig, plasma, po, 0.1 g/kg, 0.1 g/kg/dose BID, Day 1, Male, median (range)
  Tmax: 6.8 h
[2]; male, Bama, minipig, plasma, po, 0.1 g/kg, 0.1 g/kg/dose BID, Day 28, Male, mean ± SD
  AUC(0-t): 215 ± 68.9 µg·h/mL
[2]; male, Bama, minipig, plasma, po, 0.1 g/kg, 0.1 g/kg/dose BID, Day 28, Male, mean ± SD, read-out: Cmax
  Cmax: 37.2 ± 14.2 µg/mL
[2]; male, Bama, minipig, plasma, po, 0.1 g/kg, 0.1 g/kg/dose BID, Day 28, Male, median (range)
  Tmax: 3.8 h
[2]; male, Bama, minipig, plasma, po, 0.3 g/kg, 0.3 g/kg/dose BID, Day 1, Male, mean ± SD
  AUC(0-t): 539 ± 215 µg·h/mL
[2]; male, Bama, minipig, plasma, po, 0.3 g/kg, 0.3 g/kg/dose BID, Day 1, Male, mean ± SD, read-out: Cmax
  Cmax: 104 ± 52.1 µg/mL
[2]; male, Bama, minipig, plasma, po, 0.3 g/kg, 0.3 g/kg/dose BID, Day 1, Male, median (range)
  Tmax: 4.3 h
[2]; male, Bama, minipig, plasma, po, 0.3 g/kg, 0.3 g/kg/dose BID, Day 28, Male, mean ± SD
  AUC(0-t): 585 ± 227 µg·h/mL
[2]; male, Bama, minipig, plasma, po, 0.3 g/kg, 0.3 g/kg/dose BID, Day 28, Male, mean ± SD, read-out: Cmax
  Cmax: 123 ± 78.2 µg/mL
[2]; male, Bama, minipig, plasma, po, 0.3 g/kg, 0.3 g/kg/dose BID, Day 28, Male, median (range)
  Tmax: 0.8 h
[2]; male, Bama, minipig, plasma, po, 1 g/kg, 1.0 g/kg/dose BID (2.0 g/kg/day, NOAEL), Day 28, Male
  AUC(0-t): 2560 µg·h/mL
[2]; male, Bama, minipig, plasma, po, 1 g/kg, 1.0 g/kg/dose BID (2.0 g/kg/day, NOAEL), Day 28, Male, read-out: Cmax
  Cmax: 475 µg/mL
[2]; male, Bama, minipig, plasma, po, 1 g/kg, 1.0 g/kg/dose BID, Day 1, Male, mean ± SD
  AUC(0-t): 1930 ± 373 µg·h/mL
[2]; male, Bama, minipig, plasma, po, 1 g/kg, 1.0 g/kg/dose BID, Day 1, Male, mean ± SD, read-out: Cmax
  Cmax: 365 ± 93.6 µg/mL
[2]; male, Bama, minipig, plasma, po, 1 g/kg, 1.0 g/kg/dose BID, Day 1, Male, median (range)
  Tmax: 3.8 h
[2]; male, Bama, minipig, plasma, po, 1 g/kg, 1.0 g/kg/dose BID, Day 28, Male, median (range)
  Tmax: 0.8 h
[2]; male, Bama, minipig, plasma, po, 2 g/kg/day, 1.0 g/kg/dose BID (2.0 g/kg/day, NOAEL), Day 28, Male
  AUC(0-t): 2560 µg·h/mL
[2]; male, Bama, minipig, plasma, po, 2 g/kg/day, 1.0 g/kg/dose BID (2.0 g/kg/day, NOAEL), Day 28, Male, read-out: Cmax
  Cmax: 475 µg/mL
